PubChem BioAssay AID2060600 (Molecular Pharmacology Branch, DTP, NCI, 2025)
Values joined by “and” are separate entries in the source; they are usually repeats but may differ in a detail not shown here. Equal entries are not always repeated. One block for each compound: values may come before it.

Test system: 996289-038-R-J1-PDC complex spheroid viability
Experiment: Anticancer human tumor 996289-038-R-J1-PDC patient-derived colon adenocarcinoma cell line growth inhibition [CLK]
Conditions: for viability, T/C: stronger effect = lower value
Procedure, shortened: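 Multi-cell-type spheroids combined patient-derived tumor cells with HUVEC endothelial cells and human mesenchymal stem cells. Paired agents were dosed in half-log steps down from about clinical Cmax, or from 10 microM where Cmax was unknown.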

[1] = curve of first compound, second compound 0.0316 µM
[2] = curve of first compound, second compound 0.1 µM
[3] = curve of first compound, second compound 0.316 µM
[4] = curve of first compound, second compound 1 µM
[5] = curve of first compound, second compound 3.16 µM
[6] = curve of first compound, second compound 10 µM
[7] = second compound 0.0316 µM, first compound 0.0316 µM
[8] = second compound 0.0316 µM, first compound 0.1 µM
[9] = second compound 0.0316 µM, first compound 0.316 µM
[10] = second compound 0.0316 µM, first compound 1 µM
[11] = second compound 0.0316 µM, first compound 3.16 µM
[12] = second compound 0.0316 µM, first compound 10 µM
[13] = second compound 0.1 µM, first compound 0.0316 µM
[14] = second compound 0.1 µM, first compound 0.1 µM
[15] = second compound 0.1 µM, first compound 0.316 µM
[16] = second compound 0.1 µM, first compound 1 µM
[17] = second compound 0.1 µM, first compound 3.16 µM
[18] = second compound 0.1 µM, first compound 10 µM
[19] = second compound 0.316 µM, first compound 0.0316 µM
[20] = second compound 0.316 µM, first compound 0.1 µM
[21] = second compound 0.316 µM, first compound 0.316 µM
[22] = second compound 0.316 µM, first compound 1 µM
[23] = second compound 0.316 µM, first compound 3.16 µM
[24] = second compound 0.316 µM, first compound 10 µM
[25] = second compound 1 µM, first compound 0.0316 µM
[26] = second compound 1 µM, first compound 0.1 µM
[27] = second compound 1 µM, first compound 0.316 µM
[28] = second compound 1 µM, first compound 1 µM
[29] = second compound 1 µM, first compound 3.16 µM
[30] = second compound 1 µM, first compound 10 µM
[31] = second compound 3.16 µM, first compound 0.0316 µM
[32] = second compound 3.16 µM, first compound 0.1 µM
[33] = second compound 3.16 µM, first compound 0.316 µM
[34] = second compound 3.16 µM, first compound 1 µM
[35] = second compound 3.16 µM, first compound 3.16 µM
[36] = second compound 3.16 µM, first compound 10 µM
[37] = second compound 10 µM, first compound 0.0316 µM
[38] = second compound 10 µM, first compound 0.1 µM
[39] = second compound 10 µM, first compound 0.316 µM
[40] = second compound 10 µM, first compound 1 µM
[41] = second compound 10 µM, first compound 3.16 µM
[42] = second compound 10 µM, first compound 10 µM
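Note: spheroids exposed to the agents for 7 days before readout.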

Compound: C#Cc1c(F)ccc2cc(O)cc(-c3ncc4c(N5CC6CCC(C5)N6)nc(OCC56CCCN5CC(F)C6)nc4c3F)c12 (configuration not stated) + CN1CCN(c2cc(C(=O)Nc3cc4cc(-c5cnn(C)c5)ccc4cn3)ccn2)CC1
IC50 [1]: 965 nM
IC50 [2]: 589 nM
IC50 [3]: 92.3 nM
IC50 [4]: < 31.6 nM
IC50 [5]: < 31.6 nM
IC50 [6]: < 31.6 nM
viability, T/C [7]: 102%
viability, T/C [8]: 92.2%
viability, T/C [9]: 64.3%
viability, T/C [10]: 52.9%
viability, T/C [11]: 34.8%
viability, T/C [12]: 28.4%
viability, T/C [13]: 85.5%
viability, T/C [14]: 71.2%
viability, T/C [15]: 58.1%
viability, T/C [16]: 45%
viability, T/C [17]: 28.6%
viability, T/C [18]: 22.2%
viability, T/C [19]: 58.7%
viability, T/C [20]: 50.2%
viability, T/C [21]: 35.9%
viability, T/C [22]: 26.7%
viability, T/C [23]: 20.7%
viability, T/C [24]: 16.6%
viability, T/C [25]: 4.83%
viability, T/C [26]: 4.1%
viability, T/C [27]: 3.5%
viability, T/C [28]: 2.81%
viability, T/C [29]: 2.14%
viability, T/C [30]: 2.96%
viability, T/C [31]: 1.47%
viability, T/C [32]: 1.31%
viability, T/C [33]: 1.59%
viability, T/C [34]: 0.95%
viability, T/C [35]: 0.67%
viability, T/C [36]: 0.45%
viability, T/C [37]: 0.72%
viability, T/C [38]: 0.61%
viability, T/C [39]: 1.23%
viability, T/C [40]: 0.99%
viability, T/C [41]: 0.36%
viability, T/C [42]: 0.65%

Compound: Cn1ncnc1[C@H]1c2n[nH]c(=O)c3cc(F)cc(c23)N[C@@H]1c1ccc(F)cc1 + CN1CCN(c2cc(C(=O)Nc3cc4cc(-c5cnn(C)c5)ccc4cn3)ccn2)CC1
IC50 [1]: > 100 nM
IC50 [2]: > 100 nM
IC50 [3]: > 100 nM
IC50 [4]: < 0.316 nM
IC50 [5]: < 0.316 nM
IC50 [6]: < 0.316 nM
viability, T/C (second compound 0.0316 µM, first compound 0.000316 µM): 104%
viability, T/C (second compound 0.0316 µM, first compound 0.001 µM): 102%
viability, T/C (second compound 0.0316 µM, first compound 0.00316 µM): 102%
viability, T/C (second compound 0.0316 µM, first compound 0.01 µM): 107%
viability, T/C [7]: 101%
viability, T/C [8]: 80.4%
viability, T/C (second compound 0.1 µM, first compound 0.000316 µM): 88.8%
viability, T/C (second compound 0.1 µM, first compound 0.001 µM): 96.9%
viability, T/C (second compound 0.1 µM, first compound 0.00316 µM): 87.6%
viability, T/C (second compound 0.1 µM, first compound 0.01 µM): 97%
viability, T/C [13]: 95.5%
viability, T/C [14]: 86.8%
viability, T/C (second compound 0.316 µM, first compound 0.000316 µM): 72.3%
viability, T/C (second compound 0.316 µM, first compound 0.001 µM): 70.2%
viability, T/C (second compound 0.316 µM, first compound 0.00316 µM): 74.6%
viability, T/C (second compound 0.316 µM, first compound 0.01 µM): 71.6%
viability, T/C [19]: 67.9%
viability, T/C [20]: 53%
viability, T/C (second compound 1 µM, first compound 0.000316 µM): 5.01%
viability, T/C (second compound 1 µM, first compound 0.001 µM): 4.06%
viability, T/C (second compound 1 µM, first compound 0.00316 µM): 4.98%
viability, T/C (second compound 1 µM, first compound 0.01 µM): 6.96%
viability, T/C [25]: 6.27%
viability, T/C [26]: 4.4%
viability, T/C (second compound 3.16 µM, first compound 0.000316 µM): 0.64%
viability, T/C (second compound 3.16 µM, first compound 0.001 µM): 0.72%
viability, T/C (second compound 3.16 µM, first compound 0.00316 µM): 1.05%
viability, T/C (second compound 3.16 µM, first compound 0.01 µM): 0.84%
viability, T/C [31]: 0.71%
viability, T/C [32]: 1.35%
viability, T/C (second compound 10 µM, first compound 0.000316 µM): 0.97%
viability, T/C (second compound 10 µM, first compound 0.001 µM): 0.51%
viability, T/C (second compound 10 µM, first compound 0.00316 µM): 1.37%
viability, T/C (second compound 10 µM, first compound 0.01 µM): 2.6%
viability, T/C [37]: 0.38%
viability, T/C [38]: 0.92%

Compound: O=c1[nH]cc(F)c(=O)[nH]1 + CN1CCN(c2cc(C(=O)Nc3cc4cc(-c5cnn(C)c5)ccc4cn3)ccn2)CC1
IC50 [1]: > 10000 nM
IC50 [2]: > 10000 nM
IC50 [3]: 4880 nM
IC50 [4]: < 31.6 nM
IC50 [5]: < 31.6 nM
IC50 [6]: < 31.6 nM
viability, T/C [7]: 100%
viability, T/C [8]: 91.3%
viability, T/C [9]: 76.4%
viability, T/C [10]: 74.4%
viability, T/C [11]: 74.2%
viability, T/C [12]: 71%
viability, T/C [13]: 101%
viability, T/C [14]: 94.4%
viability, T/C [15]: 74.2%
viability, T/C [16]: 65.5%
viability, T/C [17]: 60.8%
viability, T/C [18]: 58.4%
viability, T/C [19]: 77.1%
viability, T/C [20]: 68.1%
viability, T/C [21]: 56.8%
viability, T/C [22]: 56.7%
viability, T/C [23]: 51.7%
viability, T/C [24]: 47.3%
viability, T/C [25]: 4.52%
viability, T/C [26]: 5.71%
viability, T/C [27]: 5.87%
viability, T/C [28]: 6.18%
viability, T/C [29]: 6.47%
viability, T/C [30]: 7.26%
viability, T/C [31]: 1.22%
viability, T/C [32]: 0.94%
viability, T/C [33]: 0.86%
viability, T/C [34]: 1.6%
viability, T/C [35]: 0.83%
viability, T/C [36]: 0.72%
viability, T/C [37]: 0.56%
viability, T/C [38]: 0.79%
viability, T/C [39]: 0.98%
viability, T/C [40]: 1.55%
viability, T/C [41]: 0.45%
viability, T/C [42]: 0.41%

Second part, led by results:

IC50 [1]: 5200 nM
IC50 [2]: 4820 nM
IC50 [3]: 3790 nM
IC50 [4]: 2280 nM
IC50 [5]: 1500 nM
IC50 [6]: 1400 nM
Compound: C=C(F)C(=O)N1CCN(c2nc(OCC3CCCN3C)nc3c2CCN(c2cccc4cccc(Cl)c24)C3)CC1CC#N (configuration not stated) + CNC(=O)c1ccc(Nc2nc(OC3CCCC3)c3c(-c4ccc5nc(C)oc5c4)c[nH]c3n2)c(OC)c1
viability, T/C [7]: 127%
viability, T/C [8]: 129%
viability, T/C [9]: 116%
viability, T/C [10]: 121%
viability, T/C [11]: 86.7%
viability, T/C [12]: 1.33%
viability, T/C [13]: 116%
viability, T/C [14]: 115%
viability, T/C [15]: 106%
viability, T/C [16]: 107%
viability, T/C [17]: 77.9%
viability, T/C [18]: 1%
viability, T/C [19]: 75.2%
viability, T/C [20]: 72.2%
viability, T/C [21]: 72.6%
viability, T/C [22]: 75.7%
viability, T/C [23]: 57.4%
viability, T/C [24]: 2.02%
viability, T/C [25]: 62.9%
viability, T/C [26]: 62.9%
viability, T/C [27]: 59.9%
viability, T/C [28]: 64.7%
viability, T/C [29]: 45.1%
viability, T/C [30]: 0.61%
viability, T/C [31]: 59.8%
viability, T/C [32]: 59.4%
viability, T/C [33]: 56.5%
viability, T/C [34]: 56.8%
viability, T/C [35]: 38.2%
viability, T/C [36]: 1.01%
viability, T/C [37]: 61.9%
viability, T/C [38]: 59%
viability, T/C [39]: 56.2%
viability, T/C [40]: 57.2%
viability, T/C [41]: 33.5%
viability, T/C [42]: 0.31%

IC50 (curve of compound): > 1000 nM
Compound: CCN1CCN(Cc2ccc(Nc3ncc(F)c(-c4cc(F)c5nc(C)n(C(C)C)c5c4)n3)nc2)CC1
viability, T/C (compound 0.00316 µM): 93.4% and 99.5%
viability, T/C (compound 0.01 µM): 98.7% and 84%
viability, T/C (compound 0.0316 µM): 92.3% and 99.6%
viability, T/C (compound 0.1 µM): 91.2% and 96.8%
viability, T/C (compound 0.316 µM): 86.5% and 94.9%
viability, T/C (compound 1 µM): 86.9% and 95%

IC50 (curve of compound): > 10000 nM
Compound: C=CC(=O)N1CCN(c2nc(=O)n(-c3c(C)ccnc3C(C)C)c3nc(-c4c(O)cccc4F)c(F)cc23)C(C)C1 (configuration not stated)
viability, T/C (compound 0.0316 µM): 97.5% and 115%
viability, T/C (compound 0.1 µM): 85.3% and 98%
viability, T/C (compound 0.316 µM): 109% and 101%
viability, T/C (compound 1 µM): 112% and 114%
viability, T/C (compound 3.16 µM): 124% and 117%
viability, T/C (compound 10 µM): 103% and 116%
